Data published in patent US20070208068A1, “Aqueous Composition Comprising Thiazole Derivative” (R-TECH UENO, LTD. & Astellas Pharma Inc., priority 2004, published 2007).
In brackets after ≈: the same amount, converted by molar mass.

Assays:
Type in all cases: physicochemical
[1] = Effect of sodium chloride on the solubility of Compound A, B and C (aqueous saturated solutions); conditions: for solubility: thermodynamic from solid; for Precipitation: aqueous saturated solution
Description: Sodium chloride was added to thus obtained aqueous saturated solution of Compound A, B, and C respectively in an amount to give 0.4% NaCl solution and the mixture was stirred.
Similarly, the saturated aqueous solution of Compound A-C was added with sodium chloride in an amount to give 0.85% solution, and precipitation and solubility were observed.

[2] = Effect of the additives on solubility of Compound C (aqueous saturated solution)
Description: To the saturated solution of Compound C prepared in the same manner as test example 1, glycerin in an amount to give 2.5% solution was added and the mixture was stirred. Similarly, mannitol in an amount to give 3.5% solution, boric acid in an amount to give 2% solution, potassium chloride in an amount to give 0.2% solution, disodium hydrogenphosphate in an amount to give 1% and sodium citrate in an amount to give 1% solution were added to the aqueous saturated solution of Compound C respectively. Precipitation and solubility, i.e. the change of the concentration of Compound C in the solution or supernatant were observed.

[3] = Effect of the additives on the stability of the aqueous solution comprising Compound C, stored at 40° C. in LDPE container
[4] = Effect of the additives on the stability of the aqueous solution comprising Compound D, stored at 40° C. in LDPE container; conditions: Compound D 0.3%
Description: Compound D was added with glycerin and distilled water and stirred to give clear aqueous solution (Conc. of Compound D: 0.3%, conc. of glycerin: 2.5%, about pH 6). Thus obtained solution was stored at 40° C. in the LDPE container and concentration of Compound D in the solution was observed over time.

[5] = aqueous saturated solution with 0.4% NaCl, saline or isotonic, conc. in solution or supernatant, NaCl 0.4%
[6] = aqueous saturated solution with 0.85% NaCl, saline or isotonic, conc. in solution or supernatant, NaCl 0.85%
[7] = distilled water (injection grade), aqueous saturated solution in distilled water, NaCl 0%, A about pH 7, B about pH 3 (HCl), C about pH 7 (HCl)
[8] = Boric acid 1.68% and borax 0.018%, 40° C., 1 month
[9] = Boric acid 1.68% and borax 0.018%, 40° C., 3 months
[10] = Boric acid 1.68% and borax 0.018%, 40° C., 6 months

CC(=O)Nc1nc(CCc2ccc(NC(=N)N)cc2)cs1 [Compound A]
% Solubulity ([1]; NaCl 0% (reference)): =100%
% Solubulity ([1]; NaCl 0.4%, vs 0% NaCl): 31%
% Solubulity ([1]; NaCl 0.85%, vs 0% NaCl): 20%
solubility [1, 5]: 1110 µg/mL (≈ 3.66 mM)
solubility [1, 6]: 690 µg/mL (≈ 2.27 mM)
Precipitation ([1]; conc. of NaCl 0%): no
Precipitation ([1]; conc. of NaCl 0.4%): yes
Precipitation ([1]; conc. of NaCl 0.85%): yes
solubility [1, 7]: 3550 µg/mL (≈ 11.7 mM)

CC(=O)Nc1nc(CCc2ccc(CON)cc2)cs1 [Compound B]
% Solubulity ([1]; NaCl 0% (reference)): =100%
% Solubulity ([1]; NaCl 0.4%, vs 0% NaCl): 100%
% Solubulity ([1]; NaCl 0.85%, vs 0% NaCl): 100%
solubility [1, 5]: 1170 µg/mL (≈ 4.02 mM)
solubility [1, 6]: 1190 µg/mL (≈ 4.08 mM)
Precipitation ([1]; conc. of NaCl 0%): no
Precipitation ([1]; conc. of NaCl 0.4%): no
Precipitation ([1]; conc. of NaCl 0.85%): no
solubility [1, 7]: 1120 µg/mL (≈ 3.84 mM)

CC(=O)Nc1nc(CCc2ccc(NC(=N)N)cc2)c(Cc2ccc(S(C)(=O)=O)cc2)s1 [Compound C]
B/A ratio ([2]; Boric acid 2%): 100%
Conc. of C/w additive (B) ([2]; Boric acid 2%): 11.59 mg/mL
Precipitation ([2]; Boric acid 2%): no
B/A ratio ([2]; Glycerin 2.5%): 95%
Conc. of C/w additive (B) ([2]; Glycerin 2.5%): 10.91 mg/mL
Precipitation ([2]; Glycerin 2.5%): no
B/A ratio ([2]; Mannitol 3.5%): 96%
Conc. of C/w additive (B) ([2]; Mannitol 3.5%): 11.05 mg/mL
Precipitation ([2]; Mannitol 3.5%): no
B/A ratio ([2]; Potassium Chloride 0.2%): 29%
Conc. of C/w additive (B) ([2]; Potassium Chloride 0.2%): 3.16 mg/mL
Precipitation ([2]; Potassium Chloride 0.2%): yes
solubility thermodynamic ([2]; aqueous saturated solution, pH 7, water, thermodynamic from solid, saturated solution before adding Mannitol 3.5%, read-out: Conc. of C w/o additive (A)): 11.5 mg/mL (≈ 24.4 mM)
B/A ratio ([2]; disodium hydrogenphosphate 1%): 24%
Conc. of C/w additive (B) ([2]; disodium hydrogenphosphate 1%): 2.54 mg/mL
Precipitation ([2]; disodium hydrogenphosphate 1%): yes
Conc. of C w/o additive (A) ([2]; saturated solution before adding Boric acid 2%): 11.51 mg/mL
Conc. of C w/o additive (A) ([2]; saturated solution before adding Glycerin 2.5%): 11.51 mg/mL
Conc. of C w/o additive (A) ([2]; saturated solution before adding Potassium Chloride 0.2%): 10.73 mg/mL
Conc. of C w/o additive (A) ([2]; saturated solution before adding disodium hydrogenphosphate 1%): 10.73 mg/mL
Conc. of C w/o additive (A) ([2]; saturated solution before adding sodium citrate 1%): 10.73 mg/mL
B/A ratio ([2]; sodium citrate 1%): 4%
Conc. of C/w additive (B) ([2]; sodium citrate 1%): 0.48 mg/mL
Precipitation ([2]; sodium citrate 1%): yes
Change in Concentration of Compound C (vs the initial conc.) [3, 8]: 104.9%
Change in Concentration of Compound C (vs the initial conc.) [3, 9]: 106.2%
Change in Concentration of Compound C (vs the initial conc.) [3, 10]: 108.2%
Change in Concentration of Compound C (vs the initial conc.) ([3]; Boric acid 1.68% and borax 0.018%, 40° C., Initial): =100%
Change in Concentration of Compound C (vs the initial conc.) ([3]; Glycerin 2.5%, Compound C 0.3%, about pH 6, 40° C., 1 month): 105.4%
Change in Concentration of Compound C (vs the initial conc.) ([3]; Glycerin 2.5%, Compound C 0.3%, about pH 6, 40° C., 3 months): 110.6%
Change in Concentration of Compound C (vs the initial conc.) ([3]; Glycerin 2.5%, Compound C 0.3%, about pH 6, 40° C., 6 months): 112.3%
Change in Concentration of Compound C (vs the initial conc.) ([3]; Glycerin 2.5%, Compound C 0.3%, about pH 6, 40° C., Initial): =100%
Change in Concentration of Compound C (vs the initial conc.) ([3]; Mannitol 4.7%, 40° C., 1 month): 103.7%
Change in Concentration of Compound C (vs the initial conc.) ([3]; Mannitol 4.7%, 40° C., 3 months): 108.4%
Change in Concentration of Compound C (vs the initial conc.) ([3]; Mannitol 4.7%, 40° C., 6 months): 109.6%
Change in Concentration of Compound C (vs the initial conc.) ([3]; Mannitol 4.7%, 40° C., Initial): =100%
% Solubulity ([1]; NaCl 0% (reference)): =100%
% Solubulity ([1]; NaCl 0.4%, vs 0% NaCl): 16%
% Solubulity ([1]; NaCl 0.85%, vs 0% NaCl): 8%
solubility [1, 5]: 1760 µg/mL (≈ 3.73 mM)
solubility [1, 6]: 860 µg/mL (≈ 1.82 mM)
Precipitation ([1]; conc. of NaCl 0%): no
Precipitation ([1]; conc. of NaCl 0.4%): yes
Precipitation ([1]; conc. of NaCl 0.85%): yes
solubility [1, 7]: 10700 µg/mL (≈ 22.8 mM)

CC(=O)Nc1nc(CCc2ccc(NC(=N)N)cc2)c(Cc2ccc(S(C)(=O)=O)cc2)s1.Cl [Compound D]
Change in Concentration of Compound D (vs the initial conc.) [4, 8]: 99.7%
Change in Concentration of Compound D (vs the initial conc.) [4, 9]: 105.8%
Change in Concentration of Compound D (vs the initial conc.) [4, 10]: 102.6%
Change in Concentration of Compound D (vs the initial conc.) ([4]; Boric acid 1.68% and borax 0.018%, 40° C., initial): =100%
Change in Concentration of Compound D (vs the initial conc.) ([4]; Glycerin 2.5%, about pH 6, 40° C., 1 month): 100.8%
Change in Concentration of Compound D (vs the initial conc.) ([4]; Glycerin 2.5%, about pH 6, 40° C., 3 months): 107.7%
Change in Concentration of Compound D (vs the initial conc.) ([4]; Glycerin 2.5%, about pH 6, 40° C., 6 months): 104.4%
Change in Concentration of Compound D (vs the initial conc.) ([4]; Glycerin 2.5%, about pH 6, 40° C., initial): =100%
